Read-outs that look alike come from different tables or passages of the source.
Legend:
human PPARδ = biological target: T1, human PPARδ (Homo sapiens, UniProt Q03181); assay: Human PPAR activation in transient transfection study, transfected CV-1 cells (delta subtype); assay type: cell-based
T1 construct: expressed in transfected cells; host or cells: CV-1 cells (transient transfection)
T1 sequence (Q03181 1-441): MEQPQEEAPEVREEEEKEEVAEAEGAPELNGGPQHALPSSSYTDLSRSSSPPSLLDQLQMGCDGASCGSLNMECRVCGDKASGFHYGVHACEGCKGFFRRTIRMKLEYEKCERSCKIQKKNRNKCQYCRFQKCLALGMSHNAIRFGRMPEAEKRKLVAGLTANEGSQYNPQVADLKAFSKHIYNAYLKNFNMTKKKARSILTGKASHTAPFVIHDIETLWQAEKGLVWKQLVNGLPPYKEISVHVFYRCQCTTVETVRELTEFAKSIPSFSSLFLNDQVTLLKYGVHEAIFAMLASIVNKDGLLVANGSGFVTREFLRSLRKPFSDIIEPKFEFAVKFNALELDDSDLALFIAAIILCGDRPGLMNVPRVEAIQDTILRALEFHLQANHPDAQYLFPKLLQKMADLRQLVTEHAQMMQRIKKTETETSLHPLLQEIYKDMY

human PPARγ = biological target: T2, human PPARγ (Homo sapiens, UniProt P37231); assay: Human PPAR activation in transient transfection study, transfected CV-1 cells (gamma subtype); assay type: cell-based
T2 construct: expressed in transfected cells; host or cells: CV-1 cells (transient transfection)
T2 sequence (P37231 1-505): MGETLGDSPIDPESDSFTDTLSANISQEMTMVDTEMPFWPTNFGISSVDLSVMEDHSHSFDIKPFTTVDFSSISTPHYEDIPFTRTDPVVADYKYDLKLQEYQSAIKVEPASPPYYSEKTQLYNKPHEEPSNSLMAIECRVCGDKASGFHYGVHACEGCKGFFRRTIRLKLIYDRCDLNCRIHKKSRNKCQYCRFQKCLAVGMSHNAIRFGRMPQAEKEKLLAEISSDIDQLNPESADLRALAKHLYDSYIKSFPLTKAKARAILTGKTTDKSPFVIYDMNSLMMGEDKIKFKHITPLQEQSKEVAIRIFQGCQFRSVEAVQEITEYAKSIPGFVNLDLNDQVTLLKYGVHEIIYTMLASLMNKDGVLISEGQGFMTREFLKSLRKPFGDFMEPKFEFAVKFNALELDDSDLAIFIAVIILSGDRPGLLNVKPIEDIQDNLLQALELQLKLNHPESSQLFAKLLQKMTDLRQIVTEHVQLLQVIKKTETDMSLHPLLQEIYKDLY
Text: (§1) The table summarize the results of studies performed in transfected CV-1 cells with three different lots of Compound of Example 11. […].

[1] = system: Relative Cerebral Metabolic Rate for glucose; assay: FDG-PET clinical study, two week treatment; assay type: in vivo, human
Text: The majority were non-Hispanic and of white origin.

human PPARα = biological target: T3, human PPARα (Homo sapiens, UniProt Q07869); assay: Human PPAR activation in transient transfection study, transfected CV-1 cells (alpha subtype); assay type: cell-based
T3 construct: expressed in transfected cells; host or cells: CV-1 cells (transient transfection)
T3 sequence (Q07869 1-468): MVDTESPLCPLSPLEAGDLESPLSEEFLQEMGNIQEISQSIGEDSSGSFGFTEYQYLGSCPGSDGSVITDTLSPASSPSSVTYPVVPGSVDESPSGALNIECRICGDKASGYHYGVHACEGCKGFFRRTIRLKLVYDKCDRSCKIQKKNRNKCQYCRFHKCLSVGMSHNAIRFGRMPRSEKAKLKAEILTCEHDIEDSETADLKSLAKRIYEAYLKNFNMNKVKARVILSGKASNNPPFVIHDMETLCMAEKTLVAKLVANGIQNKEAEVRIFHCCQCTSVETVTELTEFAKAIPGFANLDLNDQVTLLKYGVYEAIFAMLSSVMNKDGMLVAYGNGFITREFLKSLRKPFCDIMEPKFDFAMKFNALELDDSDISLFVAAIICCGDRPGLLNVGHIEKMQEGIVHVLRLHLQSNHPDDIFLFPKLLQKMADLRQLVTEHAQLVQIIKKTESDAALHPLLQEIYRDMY
Text: as §1

[2] = Rat brain penetrance pharmacokinetics, brain to plasma ratio after oral dosing; assay type: in vivo, male Sprague-Dawley rats; conditions: for concentration at 7 h: time point 7.0, individual rats
Text: Blood brain penetration studies can be carried out as described in recent publications and as is known by those skilled in the art. (See: Chang, K. L., et al. Influence of drug transporters and stereoselectivity on the brain penetration of pioglitazone as a potential medicine against Alzheimer's disease. Science Reports 2014, 5, 9000). In brief, A good measure of whether a small molecule penetrates the BBB and is not rapidly transported out, is the brain to plasma ratio of the drug. This is measured in pre-clinical animal models by determining plasma concentration vs time curves as in a standard pharmacokinetic study, and in addition harvesting brains and determining whole brain concentrations over time. The brain to plasma concentration ratio can them be determined at any time point, such as the […], or for the entire time curve (AUC, area under the curve). Clinically, FDG-PET can be used as a measure of the pharmacological effect of T3D-959, and an indirect measure of brain levels of drug.
For compounds of the present invention to be effective in treating neurotoxicity or neurodegeneration, it must have an ability to cross the BBB and penetrate the brain. […] The plasma exposure as measured by AUClast was 9569±1190 hr*ng/mL.

[3] = Caco-2 permeability with and without P-gp inhibitor verapamil; conditions: human, Caco-2
human Caco-2 = assay: as above; conditions: Caco-2 with/without verapamil

For CCc1oc(-c2ccc(OC)cc2)nc1CCOc1ccc2c(c1)CC[C@H]2CC(=O)[O-].[Na+] [Example 11, Sodium (S)-2-(5-(2-(5-ethyl-2-(4-methoxyphenyl)oxazol-4-yl)ethoxy)-2,3-dihydro-1H-inden-1-yl)acetate], which EC50 (human PPARδ; Lot A, Non GMP, read-out: EC50 PPARδ) is on record?
The EC50 was 15 nM.

What about the EC50 (human PPARδ; Lot B, GLP Nonclinical Studies, read-out: EC50 PPARδ) of the same compound?
Its EC50 is 27 nM.

What about the EC50 (human PPARδ; Lot C, cGMP material, read-out: EC50 PPARδ) of the same compound?
Its EC50 is 16 nM.

What about the EC50 (human PPARδ; average of three lots, read-out: Average EC50 PPARδ) of the same compound?
Its EC50 is 19 nM.

What about the EC50 (human PPARγ; Lot A, Non GMP, read-out: EC50 PPARγ) of the same compound?
Its EC50 is 220 nM.

And the EC50 (human PPARγ; Lot B, GLP Nonclinical Studies, read-out: EC50 PPARγ)?
The EC50 was 270 nM.

What about the EC50 (human PPARγ; Lot C, cGMP material, read-out: EC50 PPARγ) of the same compound?
The EC50 was 400 nM.

And the EC50 (human PPARγ; average of three lots, read-out: Average EC50 PPARγ)?
Its EC50 is 297 nM.

What about the “number of voxels with statistically significant differences from baseline to end of treatment (ROSDs)” value ([1]; 10 mg) of the same compound?
Its value is 70 voxels.

And the “penetration of the Blood Brain Barrier (FDG-PET, voxel-wise analysis)” value ([1]; clinical, 3 to 90 mg)?
Its value is “penetrates the Blood Brain Barrier (BBB) even at the lowest 3 mg”.

What about the “dose dependence of the effect on FDG-PET outcomes” value ([1]; sROI, anatomical ROI and voxel-wise SPM analyses) of the same compound?
Its value is “dose-dependent, with larger effects observed at larger doses”.

And the EC50 (human PPARα; Lot A, Non GMP, read-out: EC50 PPARα)?
The EC50 was 488 nM.

And the EC50 (human PPARα; Lot B, GLP Nonclinical Studies, read-out: EC50 PPARα)?
The EC50 was 750 nM.

What about the EC50 (human PPARα; Lot C, cGMP material, read-out: EC50 PPARα) of the same compound?
Its EC50 is 360 nM.

And the “selectivity over the human PPAR alpha subtype” value (human PPARα; PPARδ vs PPARα)?
The value was ~30 fold.

What about the EC50 (human PPARα; average of three lots, read-out: Average EC50 PPARα) of the same compound?
The EC50 was 530 nM.

And the “time plasma Cmax reached post dose” value ([2]; 3 mg/kg oral)?
The value was 5 h.

And the concentration at 7 h ([2]; male, Sprague-Dawley, rat, brain, oral, 3 mg/kg, read-out: Brain Tissue Cone.)?
The concentration at 7 h was 130 ng/g.

And the Kp at 3 h ([2]; male, Sprague-Dawley, rat, in vivo, 3 mg/kg, time point 3.0, individual rats, read-out: B/P Ratio)?
Its Kp at 3 h is 0.19.

What about the concentration at 3 h ([2]; male, Sprague-Dawley, rat, in vivo, 3 mg/kg, time point 3.0, individual rats, read-out: Brain Tissue Cone.) of the same compound?
Its concentration at 3 h is 274 ng/g.

And the concentration at 3 h ([2]; male, Sprague-Dawley, rat, in vivo, 3 mg/kg, time point 3.0, individual rats, read-out: Plasma Conc.)?
Its concentration at 3 h is 1430 ng/mL.

And the Kp at 5 h ([2]; male, Sprague-Dawley, rat, in vivo, 3 mg/kg, time point 5.0, individual rats, read-out: B/P Ratio)?
The Kp at 5 h was 0.17.

And the concentration at 5 h ([2]; male, Sprague-Dawley, rat, in vivo, 3 mg/kg, time point 5.0, individual rats, read-out: Brain Tissue Cone.)?
The concentration at 5 h was 208 ng/g.

And the concentration at 5 h ([2]; male, Sprague-Dawley, rat, in vivo, 3 mg/kg, time point 5.0, individual rats, read-out: Plasma Conc.)?
The concentration at 5 h was 1260 ng/mL.

What about the concentration at 7 h ([2]; male, Sprague-Dawley, rat, in vivo, 3 mg/kg, read-out: Brain Tissue Cone.) of the same compound?
The concentration at 7 h was 203 ng/g.

And the Kp at 12 h ([2]; male, Sprague-Dawley, rat, in vivo, 3 mg/kg, time point 12.0, individual rats, read-out: B/P Ratio)?
Its Kp at 12 h is 0.3.

What about the concentration at 12 h ([2]; male, Sprague-Dawley, rat, in vivo, 3 mg/kg, time point 12.0, individual rats, read-out: Brain Tissue Cone.) of the same compound?
The concentration at 12 h was 104 ng/g.

What about the concentration at 12 h ([2]; male, Sprague-Dawley, rat, in vivo, 3 mg/kg, time point 12.0, individual rats, read-out: Plasma Conc.) of the same compound?
Its concentration at 12 h is 345 ng/mL.

What about the Kp at 1 h ([2]; male, Sprague-Dawley, rat, in vivo, po, 3 mg/kg, 1 hour, 3 mg/kg oral) of the same compound?
Its Kp at 1 h is 0.361 ± 0.142.

And the Kp at 3 h ([2]; male, Sprague-Dawley, rat, in vivo, po, 3 mg/kg, 3 hours, 3 mg/kg oral, read-out: Brain/Plasma ratio)?
The Kp at 3 h was 0.22 ± 0.033.

And the Kp at 5 h ([2]; male, Sprague-Dawley, rat, in vivo, po, 3 mg/kg, 5 hours, 3 mg/kg oral, read-out: Brain/Plasma ratio)?
The Kp at 5 h was 0.171 ± 0.011.

What about the Kp at 7 h ([2]; male, Sprague-Dawley, rat, in vivo, po, 3 mg/kg, 7 hours, 3 mg/kg oral) of the same compound?
Its Kp at 7 h is 0.328 ± 0.154.

And the Kp at 12 h ([2]; male, Sprague-Dawley, rat, in vivo, po, 3 mg/kg, 12 hours, 3 mg/kg oral, read-out: Brain/Plasma ratio)?
Its Kp at 12 h is 0.35 ± 0.077.

And the half-life ([2]; male, Sprague-Dawley, rat, in vivo, 3 mg/kg oral)?
The half-life was 3.33 h.

And the Cmax ([2]; male, Sprague-Dawley, rat, in vivo, 3 mg/kg oral, normal saline)?
Its Cmax is 1550 ± 248 ng/mL.

What about the AUC(0-t) ([2]; male, Sprague-Dawley, rat, in vivo, 3 mg/kg oral, read-out: plasma exposure AUClast) of the same compound?
The AUC(0-t) was 9570 ± 1190 ng·h/mL.

What about the concentration at 3 h ([2]; male, Sprague-Dawley, rat, plasma, oral, 3 mg/kg, time point 3.0, individual rats, read-out: Plasma Conc.) of the same compound?
Its concentration at 3 h is 910 ng/mL.

And the Papp [3]?
The Papp was 114 ×10⁻⁶ cm/s.

And the P-gp substrate (human Caco-2)?
Its P-gp substrate is “not a substrate for P-gp”.

Source: US20210212996A1, “METHODS OF TREATING NEURODEGENERATIVE DISEASES USING INDANE ACETIC ACID DERIVATIVES WHICH PENETRATE THE BLOOD BRAIN BARRIER” (DARA BioSciences, Inc., priority 2009, published 2021)
